From patent US20260256792A1, “TREATMENT OF CHRONIC SPONTANEOUS URTICARIA BY ADMINISTERING (R)-2-[3-[4-AMINO-3-(2-FLUORO-4-PHENOXY-PHENYL)PYRAZOLO[3,4-D]PYRIMIDIN-1-YL]PIPERIDINE-1-CARBONYL]-4-METHYL-4-[4-(OXETAN-3-YL)PIPERAZIN-1-YL]PENT-2-ENENITRILE” (priority 2023, published 2026)

Tested on: moderate-to-severe chronic spontaneous urticaria (CSU)
Test: Phase 2 CSU study: urticaria activity score over 7 days (UAS7)
Assay type: in vivo, human
Conditions: ITT
From the text: The study comprises a 12 week, randomized, double-blind, placebo-controlled, multi-center, dose-ranging efficacy and safety phase, followed by a 40 week open label extension (OLE) phase (see FIG. 1). The study consists of three phases and an optional OLE phase. […] Clinically, CSU is characterized by the spontaneous and recurrent appearance of pruritic hives. The proposed primary endpoints were the UAS7 at Week 12 in EU and EU reference countries and the ISS7 in the US. Regardless of where a participant was from, all assessments were the same. The UAS7 score is a composite score containing both the HSS7 and the ISS7. This allowed a global assessment of the two key components of urticaria: hives and itch. […] The UAS is a validated PRO measure. […] The daily UAS scores range from 0 to 6 point/day. […] Patients were to complete the UAS using the e-diary. […] The following secondary endpoints were to be analyzed using the same approach as for the primary endpoint: • Change from baseline in UAS7 at Week 4 • Change from baseline in UAS7 at Week 12 (for US and US reference countries) • Change from baseline in ISS7 at Week 12 (except US and US reference countries) • Change from baseline in HSS7 at Week 12 The following responder secondary endpoints were to be analyzed using the Cochran-Mantel-Haenszel test adjusted by region: • Proportion of participants with UAS7<6 at Week 12 • Proportion of participants with UAS7=0 at Week 12 Participants who received selected prohibited medications and/or rescue medications were to be considered as non-responders for time points after the medication usage. For other participants, all available data including those collected during the off-treatment period were to be used to determine the responder/non-responder status. Missing data were to be considered as non-responders.

## CC(C)(C=C(C#N)C(=O)N1CCC[C@@H](n2nc(-c3ccc(Oc4ccccc4)cc3F)c3c(N)ncnc32)C1)N1CCN(C2COC2)CC1 [rilzabrutinib, (R)-2-[3-[4-amino-3-(2-fluoro-4-phenoxy-phenyl)pyrazolo[3,4-d]pyrimidin-1-yl]piperidine-1-carbonyl]-4-methyl-4-[4-(oxetan-3-yl)piperazin-1-yl]pent-2-enenitrile]
400 mg BID, Week 11
  Non-responder n (%), UAS7 ≤6: 28 (68.3) n (%)
  OR for rilzabrutinib vs. placebo, UAS7 = 0: 2.892
  OR for rilzabrutinib vs. placebo, UAS7 ≤6: 1.991
  RRD (%) for rilzabrutinib vs. placebo, UAS7 = 0: 8.2 %
  RRD (%) for rilzabrutinib vs. placebo, UAS7 ≤6: 11.8 %
  Responder n (%), UAS7 = 0: 6 (14.6) n (%)
  Responder n (%), UAS7 ≤6: 13 (31.7) n (%)
400 mg BID, Week 12
  Imputed non-responder n (%), UAS7 = 0: 14 (34.1) n (%)
  Imputed non-responder n (%), UAS7 ≤6: 14 (34.1) n (%)
  Non-responder n (%), UAS7 = 0: 33 (80.5) n (%)
  Non-responder n (%), UAS7 ≤6: 31 (75.6) n (%)
  OR for rilzabrutinib vs. placebo, UAS7 = 0: 1.511
  OR for rilzabrutinib vs. placebo, UAS7 ≤6: 2.067
  RRD (%) for rilzabrutinib vs. placebo, UAS7 ≤6: 10.0 %
  Responder n (%), UAS7 = 0: 8 (19.5) n (%)
  Responder n (%), UAS7 ≤6: 10 (24.4) n (%)
400 mg QPM, Week 1
  Imputed non-responder n (%), UAS7 = 0: 0 n (%)
  Imputed non-responder n (%), UAS7 ≤6: 0 n (%)
  Non-responder n (%), UAS7 = 0: 38 (100) n (%)
  Non-responder n (%), UAS7 ≤6: 36 (94.7) n (%)
  OR for rilzabrutinib vs. placebo, UAS7 = 0: 0.000 (NE,
  OR for rilzabrutinib vs. placebo, UAS7 ≤6: 1.099
  RRD (%) for rilzabrutinib vs. placebo, UAS7 = 0: −2.6 %
  RRD (%) for rilzabrutinib vs. placebo, UAS7 ≤6: 0.4 %
  Responder n (%), UAS7 = 0: 0 n (%)
  Responder n (%), UAS7 ≤6: 2 (5.3) n (%)
400 mg QPM, Week 2
  Imputed non-responder n (%), UAS7 = 0: 0 n (%)
  Imputed non-responder n (%), UAS7 ≤6: 0 n (%)
  Non-responder n (%), UAS7 = 0: 38 (100) n (%)
  Non-responder n (%), UAS7 ≤6: 37 (97.4) n (%)
  OR for rilzabrutinib vs. placebo, UAS7 = 0: 0.000 (NE,
  OR for rilzabrutinib vs. placebo, UAS7 ≤6: 0.517
  RRD (%) for rilzabrutinib vs. placebo, UAS7 = 0: −2.6 %
  RRD (%) for rilzabrutinib vs. placebo, UAS7 ≤6: −2.3 %
  Responder n (%), UAS7 = 0: 0 n (%)
  Responder n (%), UAS7 ≤6: 1 (2.6) n (%)
400 mg QPM, Week 3
  Imputed non-responder n (%), UAS7 = 0: 0 n (%)
  Imputed non-responder n (%), UAS7 ≤6: 0 n (%)
  Non-responder n (%), UAS7 = 0: 38 (100) n (%)
  Non-responder n (%), UAS7 ≤6: 36 (94.7) n (%)
  OR for rilzabrutinib vs. placebo, UAS7 = 0: 0.000 (NE,
  OR for rilzabrutinib vs. placebo, UAS7 ≤6: 0.553
  RRD (%) for rilzabrutinib vs. placebo, UAS7 = 0: −2.6 %
  RRD (%) for rilzabrutinib vs. placebo, UAS7 ≤6: −3.9%
  Responder n (%), UAS7 = 0: 0 n (%)
  Responder n (%), UAS7 ≤6: 2 (5.3) n (%)
400 mg QPM, Week 4
  Imputed non-responder n (%), UAS7 = 0: 1 (2.6) n (%)
  Imputed non-responder n (%), UAS7 ≤6: 1 (2.6) n (%)
  Non-responder n (%), UAS7 = 0: 38 (100) n (%)
  Non-responder n (%), UAS7 ≤6: 36 (94.7) n (%)
  OR for rilzabrutinib vs. placebo, UAS7 = 0: 0.000 (NE,
  OR for rilzabrutinib vs. placebo, UAS7 ≤6: 0.432
  RRD (%) for rilzabrutinib vs. placebo, UAS7 = 0: −4.8 %
  RRD (%) for rilzabrutinib vs. placebo, UAS7 ≤6: −6.0%
  Responder n (%), UAS7 = 0: 0 n (%)
  Responder n (%), UAS7 ≤6: 2 (5.3) n (%)
400 mg QPM, Week 5
  Imputed non-responder n (%), UAS7 = 0: 2 (5.3) n (%)
  Imputed non-responder n (%), UAS7 ≤6: 2 (5.3) n (%)
  Non-responder n (%), UAS7 = 0: 37 (97.4) n (%)
  Non-responder n (%), UAS7 ≤6: 36 (94.7) n (%)
  OR for rilzabrutinib vs. placebo, UAS7 = 0: 1.000
  OR for rilzabrutinib vs. placebo, UAS7 ≤6: 1.065
  RRD (%) for rilzabrutinib vs. placebo, UAS7 = 0: 0.0 %
  RRD (%) for rilzabrutinib vs. placebo, UAS7 ≤6: 0.3 %
  Responder n (%), UAS7 = 0: 1 (2.6) n (%)
  Responder n (%), UAS7 ≤6: 2 (5.3) n (%)
